{"source": "patent US20240307423A1", "about": "“FRACTIONS OF, AND MOLECULES RELEASED IN, PROTEIN RICH PLASMA WHICH INHIBIT IMMUNE RESPONSES AND REDUCE INFLAMMATION, AND METHODS OF OBTAINING” (NEW YORK SOCIETY FOR THE RELIEF OF THE RUPTURED AND …, priority 2021, published 2024)", "key": {"[1]": {"system": "TLR9-activated human plasmacytoid dendritic cells (pDCs)", "assay": "IFN-α secretion (ELISA) by purified pDCs activated with TLR9 ligand alone (CpG1018 / CpG C274)", "type": "cell-based", "conditions": "without CXCL4; various dilutions", "protocol": "(§1) PBMCs were prepared using Ficoll-Paque density gradient from fresh blood under internal Institutional Review Board-approved protocols. pDCs were isolated as previously described (Guiducci et al. 2008) using either using negative depletion (Miltenyi Biotech) or following cell sorting using a […]. All BDCA4+ cells also express BDCA2 (results not shown). As a result, pure pDCs were obtained and no markers for neutrophils (CD66) or myeloid cells were found by PCR.\n(§2) For the TLR9 activation in pDCs, the cells were incubated in complete media alone, or CpG-B 1018 (0.25 or 1 μM), or CpG-C 274 at similar concentrations. In some assays, cells were also incubated with 10 μg/ml CXCL4 (R&D systems).\n(§3) Supernatant from B cells and pDCs 24 hour culture was used for quantification of secreted IFNα with the use of an enzyme-linked immunosorbent assay (ELISA) (Mabtech) performed according to the manufacturer's protocol.\n(§4) Data were analyzed using a Mann-Whitney U-test (t test using non parametric criteria for independent samples). Comparisons between PBMC and pDCs-depleted PBMC were tested using a parametric paired t-test. All analyses were performed using Prism software (GraphPad Software). Differences were considered significant at a P level less than 0.05 with *p<0.05; **p<0.01; ***p<0.001."}, "[2]": {"system": "TLR9+CXCL4-activated human plasmacytoid dendritic cells (pDCs)", "assay": "IFN-α secretion (ELISA) by purified pDCs activated with CpG-B (TLR9 ligand) + CXCL4", "type": "cell-based", "conditions": "CXCL4 present", "protocol": "as §1, §2, §3, §4"}}, "data": [{"compound": "CC(=O)N[C@H]1[C@H]([C@H](O)[C@H](O)CO)O[C@@](O)(C(=O)O)C[C@@H]1O", "note": "[N-Acetylneuraminic acid, 5-(acetylamino)-3,5-dideoxy-D-glycero-α-D-galacto-non-2-ulopyranosonic acid]", "values": [{"measurement": "inhibitory effect on TLR9-activated pDCs, IFN-α production relative to the TLR9 agonist CpG C274", "setting": "[1]", "value": "significant inhibitory effect"}, {"measurement": "inhibitory effect on TLR9-activated pDCs, IFN-α production relative to CpG-CXCL4", "setting": "[2]", "value": "significant inhibitory effect"}]}]}
